Data taken from patent US20130109711A1, “NOVEL COMPOUNDS” (priority 2010, published 2013).

target: T1, human Cav2.2α (α1B) subunit, along with the human β3 and α2δ1 auxiliary subunits (Homo sapiens, UniProt Q00975); test: hCav2.2 assay (IonWorks planar array electrophysiology); type: cell-based; details: HEK293 cells; inhibition of current elicited by the 1st depolarising pulse by 50%; read-out: mean pIC50 value (tonic pIC50) (converted)
T1 construct: expressed in transfected cells; plasmids pCIN5-hCav2.2, pCIH-hCav β3, pCIP-α2δ1
T1 sequence (Q00975 whole entry): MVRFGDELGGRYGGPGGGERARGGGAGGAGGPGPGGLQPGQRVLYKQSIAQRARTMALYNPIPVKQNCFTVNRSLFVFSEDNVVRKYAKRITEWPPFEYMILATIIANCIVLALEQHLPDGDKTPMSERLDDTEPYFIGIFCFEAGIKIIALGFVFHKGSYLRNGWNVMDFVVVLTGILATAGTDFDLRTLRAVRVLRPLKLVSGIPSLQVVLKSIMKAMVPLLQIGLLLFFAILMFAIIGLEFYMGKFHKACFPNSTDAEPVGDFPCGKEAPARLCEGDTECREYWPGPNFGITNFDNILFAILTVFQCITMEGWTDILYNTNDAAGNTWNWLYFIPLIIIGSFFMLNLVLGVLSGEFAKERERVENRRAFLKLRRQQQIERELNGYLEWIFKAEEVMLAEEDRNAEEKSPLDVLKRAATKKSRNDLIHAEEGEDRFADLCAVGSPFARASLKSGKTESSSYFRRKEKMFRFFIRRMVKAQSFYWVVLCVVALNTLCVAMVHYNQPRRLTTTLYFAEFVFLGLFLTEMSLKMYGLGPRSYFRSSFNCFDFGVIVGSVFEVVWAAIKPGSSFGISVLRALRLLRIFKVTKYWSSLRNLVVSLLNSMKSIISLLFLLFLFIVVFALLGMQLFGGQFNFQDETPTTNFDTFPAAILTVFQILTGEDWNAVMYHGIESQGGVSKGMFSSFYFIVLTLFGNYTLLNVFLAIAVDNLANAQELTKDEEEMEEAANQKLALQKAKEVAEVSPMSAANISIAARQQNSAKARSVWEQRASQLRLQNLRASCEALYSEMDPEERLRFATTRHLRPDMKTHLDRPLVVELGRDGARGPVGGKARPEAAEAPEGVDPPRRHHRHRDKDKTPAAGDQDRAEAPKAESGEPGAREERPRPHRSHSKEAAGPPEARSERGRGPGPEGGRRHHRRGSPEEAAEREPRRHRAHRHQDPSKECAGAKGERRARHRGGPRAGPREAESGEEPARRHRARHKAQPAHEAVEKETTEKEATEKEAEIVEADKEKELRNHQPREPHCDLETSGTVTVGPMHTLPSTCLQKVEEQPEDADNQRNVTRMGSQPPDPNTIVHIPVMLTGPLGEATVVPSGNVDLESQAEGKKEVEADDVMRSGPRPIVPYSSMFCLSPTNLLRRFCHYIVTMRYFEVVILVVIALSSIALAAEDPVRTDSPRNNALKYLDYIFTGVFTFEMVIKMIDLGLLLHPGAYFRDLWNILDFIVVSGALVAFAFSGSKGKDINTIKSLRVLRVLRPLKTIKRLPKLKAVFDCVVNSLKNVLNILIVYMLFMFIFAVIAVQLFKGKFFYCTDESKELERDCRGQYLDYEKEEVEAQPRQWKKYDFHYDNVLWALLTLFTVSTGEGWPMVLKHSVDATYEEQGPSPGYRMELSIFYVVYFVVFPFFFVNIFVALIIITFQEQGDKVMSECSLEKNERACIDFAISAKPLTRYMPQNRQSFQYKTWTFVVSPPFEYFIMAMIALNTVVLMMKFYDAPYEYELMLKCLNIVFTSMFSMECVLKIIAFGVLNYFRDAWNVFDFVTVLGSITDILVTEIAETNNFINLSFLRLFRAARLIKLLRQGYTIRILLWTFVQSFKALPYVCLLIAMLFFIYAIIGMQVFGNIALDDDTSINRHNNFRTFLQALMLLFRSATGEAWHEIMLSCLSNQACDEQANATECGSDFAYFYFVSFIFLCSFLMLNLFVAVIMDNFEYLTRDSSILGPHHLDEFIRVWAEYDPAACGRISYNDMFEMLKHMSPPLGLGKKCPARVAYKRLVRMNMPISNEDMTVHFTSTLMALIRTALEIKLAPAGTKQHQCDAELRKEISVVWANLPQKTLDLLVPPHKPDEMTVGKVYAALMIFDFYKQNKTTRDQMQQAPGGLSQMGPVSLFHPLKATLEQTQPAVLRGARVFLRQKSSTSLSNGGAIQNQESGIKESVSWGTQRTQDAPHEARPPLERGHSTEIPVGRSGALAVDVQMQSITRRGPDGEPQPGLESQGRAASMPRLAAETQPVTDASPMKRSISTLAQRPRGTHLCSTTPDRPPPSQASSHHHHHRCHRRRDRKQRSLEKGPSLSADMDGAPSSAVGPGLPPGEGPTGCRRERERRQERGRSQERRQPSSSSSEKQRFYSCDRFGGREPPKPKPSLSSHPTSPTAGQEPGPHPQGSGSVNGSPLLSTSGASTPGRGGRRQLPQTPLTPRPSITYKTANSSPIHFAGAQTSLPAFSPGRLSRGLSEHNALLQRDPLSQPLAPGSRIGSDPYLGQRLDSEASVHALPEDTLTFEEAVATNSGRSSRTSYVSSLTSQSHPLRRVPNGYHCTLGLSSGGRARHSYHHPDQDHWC
T1 sequence (P54284 whole entry partner): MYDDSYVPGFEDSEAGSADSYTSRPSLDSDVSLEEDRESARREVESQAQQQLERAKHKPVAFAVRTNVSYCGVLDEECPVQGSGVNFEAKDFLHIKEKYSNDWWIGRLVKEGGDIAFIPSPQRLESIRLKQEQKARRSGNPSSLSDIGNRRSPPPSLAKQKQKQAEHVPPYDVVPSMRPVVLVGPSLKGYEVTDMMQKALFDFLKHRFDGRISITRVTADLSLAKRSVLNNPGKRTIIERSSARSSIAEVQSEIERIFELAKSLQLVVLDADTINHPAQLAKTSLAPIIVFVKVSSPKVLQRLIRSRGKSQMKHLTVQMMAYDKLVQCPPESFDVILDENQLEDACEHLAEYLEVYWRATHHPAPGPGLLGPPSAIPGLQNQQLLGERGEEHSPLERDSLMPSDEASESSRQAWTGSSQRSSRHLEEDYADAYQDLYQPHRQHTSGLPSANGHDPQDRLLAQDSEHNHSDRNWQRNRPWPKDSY
T1 sequence (P54289 25-946 partner limits assumed): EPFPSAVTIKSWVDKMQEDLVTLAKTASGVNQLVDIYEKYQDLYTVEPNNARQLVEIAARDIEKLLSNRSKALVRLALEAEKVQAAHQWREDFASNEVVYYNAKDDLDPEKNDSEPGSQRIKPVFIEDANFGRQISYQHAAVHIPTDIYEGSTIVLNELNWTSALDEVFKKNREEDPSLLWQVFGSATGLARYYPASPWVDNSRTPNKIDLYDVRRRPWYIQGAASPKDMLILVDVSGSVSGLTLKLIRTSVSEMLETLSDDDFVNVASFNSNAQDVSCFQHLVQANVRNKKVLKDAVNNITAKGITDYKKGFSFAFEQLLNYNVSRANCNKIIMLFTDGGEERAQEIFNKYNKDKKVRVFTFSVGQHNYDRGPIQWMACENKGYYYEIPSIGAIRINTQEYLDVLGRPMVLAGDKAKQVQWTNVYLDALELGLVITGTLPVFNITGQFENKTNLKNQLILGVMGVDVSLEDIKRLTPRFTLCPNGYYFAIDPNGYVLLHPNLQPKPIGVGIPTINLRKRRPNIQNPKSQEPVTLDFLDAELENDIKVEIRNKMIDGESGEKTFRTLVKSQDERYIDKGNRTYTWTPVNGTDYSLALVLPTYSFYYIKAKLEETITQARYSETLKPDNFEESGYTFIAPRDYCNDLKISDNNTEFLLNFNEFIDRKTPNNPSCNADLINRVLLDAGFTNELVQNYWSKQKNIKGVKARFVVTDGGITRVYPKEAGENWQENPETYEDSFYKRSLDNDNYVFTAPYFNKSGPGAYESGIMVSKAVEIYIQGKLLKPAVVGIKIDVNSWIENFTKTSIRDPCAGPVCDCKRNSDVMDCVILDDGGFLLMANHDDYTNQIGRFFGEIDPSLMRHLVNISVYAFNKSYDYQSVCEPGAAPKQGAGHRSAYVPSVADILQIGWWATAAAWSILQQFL
T1 sequence (P54289 947-1103 partner limits assumed): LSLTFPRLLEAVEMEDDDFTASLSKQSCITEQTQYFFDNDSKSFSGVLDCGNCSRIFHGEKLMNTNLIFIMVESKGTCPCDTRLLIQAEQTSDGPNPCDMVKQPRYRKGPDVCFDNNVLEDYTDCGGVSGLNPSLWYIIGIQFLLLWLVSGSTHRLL
Procedure: Compounds of the invention may be tested for in vitro biological activity in the hCav2.2 assay in accordance with the following studies:
Stable cell lines expressing the human Cav2.2α (α1B) subunit, along with the human β3 and α2δ1 auxiliary subunits were created following sequential transfection and selection of human embryonic kidney (HEK293) cells. HEK293 cells were cultured in Dulbecco's modified Eagles media/F12 media (Invitrogen, Cat #041-95750V) containing 10% fetal bovine serum, with added L-glutamine (2 mM; Invitrogen, Cat #25030-024) and non-essential amino acids (5%; Invitrogen, Cat #11140-035). Initially HEK293 cells were transfected with two plasmid vectors for expression of the hCav2.2α subunit (pCIN5-hCav2.2 which carries a neomycin resistance marker) and the hCav β3 subunit (pCIH-hCav β3 which carries a hygromycin resistance marker). Clonal cell lines were isolated following selection in media supplemented with 0.4 mg ml^−1 Geneticin G418 (Invitrogen, Cat #10131-027) and 0.1 mg ml^−1 hygromycin (Invitrogen, Cat #10687-010). These clonal cell lines were assessed for Cav2.2α/β3-mediated current expression using the IonWorks planar array electrophysiology technology (described below). A clonal line was identified that gave a reasonable level of functional Cav2.2α/β3 current expression. This cell line was transfected with a plasmid vector for expression of the human α2δ1 subunit (pCIP-α2δ1 which carries a puromycin resistance marker) and clonal cell lines isolated following selection in media containing 0.62 μg ml^−1 puromycin (Sigma, Cat # P-7255), in addition to 0.4 mg ml^−1 Geneticin G418 and 0.1 mg ml^−1 hygromycin. Several cell lines were identified that gave robust levels of Cav2.2α/β3/α2δ1-mediated current expression and one of these was selected for compound profiling. Expression of all three subunits within this cell line was continuously maintained by the inclusion of G418 (0.4 mg ml^−1), hygromycin (0.1 mg ml^−1) and puromycin (0.62 μg ml^−1). Cells were maintained at 37° C. in a humidified environment containing 5% CO2 in air. Cells were liberated from the T175 culture flasks for passage and harvesting using TrpLE (Invitrogen, Cat #12604-013).
Cells were grown to 30-60% confluence in T175 flasks and maintained at 30° C. for 24 hrs prior to recording. Cells were lifted by removing the growth media, washing with Ca^2+free PBS (Invitrogen, Cat #14190-094) and incubating with 3 ml of warmed (37° C.) TrpLE (Invitrogen, Cat #12604-013) for 6 minutes. Lifted cells were suspended in 10 ml of extracellular buffer. Cell suspension was then placed into a 15 ml tube and centrifuged for 2 minutes at 700 rpm. After centrifugation, the supernatant was removed and the cell pellet was resuspended in 4.5 ml of extracellular solution.
Currents were recorded at room temperature (21-23° C.) using the IonWorks planar array electrophysiology technology (Molecular Devices Corp.). Stimulation protocols and data acquisition were carried out using a microcomputer (Dell Pentium 4). In order to determine planar electrode hole resistances (Rp), a 10 mV, 160 ms potential difference was applied across each hole. These measurements were performed before cell addition. After cell addition a seal test was performed prior to antibiotic (amphotericin) circulation to achieve intracellular access. Leak subtraction was conducted in all experiments by applying a 160 ms hyperpolarizing (10 mV) prepulse 200 ms before the test pulses to measure leak conductance. Test pulses stepping from the holding potential (VH) of −90 mV to +10 mV were applied for 20 ms and repeated 10 times at a frequency of 10 Hz. In all experiments, the test pulse protocol was performed in the absence (pre-read) and presence (post-read) of a compound. Pre- and post-reads were separated by a compound addition followed by a 3-3.5 min incubation.
The intracellular solution contained the following (in mM): K-gluconate 120, KCl 20 mM, MgCl2 5, EGTA 5, HEPES 10, adjusted to pH 7.3. […]

IC50, ≥ 31.6 µM:
CCOc1ccc(S(=O)(=O)N2CCCC3(CCCN(C)C3=O)C2)cc1 (stereo not drawn) [Compound 34, 8-{[4-(Ethyloxy)phenyl]sulfonyl}-2-methyl-2,8-diazaspiro[5.5]undecan-1-one]
O=C1NCCCC12CCCN(S(=O)(=O)c1cc(F)cc(C(F)(F)F)c1)C2 (stereo not drawn) [Compound 17, 8-{[3-Fluoro-5-(trifluoromethyl)phenyl]sulfonyl}-2,8-diazaspiro[5.5]undecan-1-one]
O=C1OCCC12CCCN(S(=O)(=O)c1ccc(C(F)(F)F)cc1)C2 (stereo not drawn) [Compound 28, 7-{[4-(Trifluoromethyl)phenyl]sulfonyl}-2-oxa-7-azaspiro[4.5]decan-1-one]
O=C1NCCC12CCCN(S(=O)(=O)c1cc(C(F)(F)F)cc(C(F)(F)F)c1)C2 (stereo not drawn) [Compound 8, 7-{[3,5-Bis(trifluoromethyl)phenyl]sulfonyl}-2,7-diazaspiro[4.5]decan-1-one]
O=C1NCCCC12CCCN(S(=O)(=O)c1cc(C(F)(F)F)ccc1C(F)(F)F)C2 (stereo not drawn) [Compound 18, 8-{[2,5-Bis(trifluoromethyl)phenyl]sulfonyl}-2,8-diazaspiro[5.5]undecan-1-one]
O=C1NCCCC12CCCN(S(=O)(=O)c1cccc(C(F)(F)F)c1)C2 (stereo not drawn) [Compound 12, 8-{[3-(Trifluoromethyl)phenyl]sulfonyl}-2,8-diazaspiro[5.5]undecan-1-one]
O=C1NCCC12CCCN(S(=O)(=O)c1cccc(OC(F)(F)F)c1)C2 (stereo not drawn) [Compound 15, 7-({3-[(Trifluoromethyl)oxy]phenyl}sulfonyl)-2,7-diazaspiro[4.5]decan-1-one]
Cc1ccc(S(=O)(=O)N2CCCC3(CCNC3=O)C2)cc1C(F)(F)F (stereo not drawn) [Compound 23, 7-{[4-Methyl-3-(trifluoromethyl)phenyl]sulfonyl}-2,7-diazaspiro[4.5]decan-1-one]
O=C1NCCC12CCCN(S(=O)(=O)c1cccc(OC(F)F)c1)C2 (stereo not drawn) [Compound 33, 7-({3-[(Difluoromethyl)oxy]phenyl}sulfonyl)-2,7-diazaspiro[4.5]decan-1-one]
O=C1NCCCC12CCCN(S(=O)(=O)c1cccc(OC(F)F)c1)C2 (stereo not drawn) [Compound 31, 8-({3-[(Difluoromethyl)oxy]phenyl}sulfonyl)-2,8-diazaspiro[5.5]undecan-1-one]
O=C1NCCCC12CCCN(S(=O)(=O)c1cc(C(F)(F)F)cc(C(F)(F)F)c1)C2 (stereo not drawn) [Compound 27, 8-{[3,5-Bis(trifluoromethyl)phenyl]sulfonyl}-2,8-diazaspiro[5.5]undecan-1-one]
Cc1ccc(S(=O)(=O)N2CCCC3(CCCNC3=O)C2)cc1 (stereo not drawn) [Compound 35, 8-[(4-Methylphenyl)sulfonyl]-2,8-diazaspiro[5.5]undecan-1-one]
O=C1NCCCC12CCCN(S(=O)(=O)c1ccc(C(F)(F)F)cc1)C2 (stereo not drawn) [Compound 10, 8-{[4-(Trifluoromethyl)phenyl]sulfonyl}-2,8-diazaspiro[5.5]undecan-1-one]
O=C1NCCCC12CCCN(S(=O)(=O)c1ccc(OC(F)(F)F)cc1)C2 (stereo not drawn) [Compound 13, 8-({4-[(Trifluoromethyl)oxy]phenyl}sulfonyl)-2,8-diazaspiro[5.5]undecan-1-one]
CN1CCCC2(CCCN(S(=O)(=O)c3ccc(C(F)(F)F)cc3)C2)C1=O (stereo not drawn) [Compound 5, 2-Methyl-8-{[4-(trifluoromethyl)phenyl]sulfonyl}-2,8-diazaspiro[5.5]undecan-1-one]
O=C1NCCC12CCCN(S(=O)(=O)c1ccc(C(F)(F)F)cc1Br)C2 (stereo not drawn) [Compound 21, 7-{[2-Bromo-4-(trifluoromethyl)phenyl]sulfonyl}-2,7-diazaspiro[4.5]decan-1-one]
Cc1ccc(S(=O)(=O)N2CCCC3(CCNC3=O)C2)c(C(F)(F)F)c1 (stereo not drawn) [Compound 30, 7-{[4-Methyl-2-(trifluoromethyl)phenyl]sulfonyl}-2,7-diazaspiro[4.5]decan-1-one]
O=C1NCCC12CCCN(S(=O)(=O)c1cc(Cl)cc(Cl)c1)C2 (stereo not drawn) [Compound 19, 7-[(3,5-Dichlorophenyl)sulfonyl]-2,7-diazaspiro[4.5]decan-1-one]
O=C1OCCC12CCCN(S(=O)(=O)c1ccc(OC(F)(F)F)cc1)C2 (stereo not drawn) [Compound 29, 7-({4-[(Trifluoromethyl)oxy]phenyl}sulfonyl)-2-oxa-7-azaspiro[4.5]decan-1-one]
Cc1ccc(S(=O)(=O)N2CCCC3(CCNC3=O)C2)c(C)c1 (stereo not drawn) [Compound 7, 7-[(2,4-Dimethylphenyl)sulfonyl]-2,7-diazaspiro[4.5]decan-1-one]
O=C1NCCC12CCCN(S(=O)(=O)c1ccc(OC(F)(F)F)c(Cl)c1)C2 (stereo not drawn) [Compound 20, 7-({3-Chloro-4-[(trifluoromethyl)oxy]phenyl}sulfonyl)-2,7-diazaspiro[4.5]decan-1-one]
Cc1cc(C(F)(F)F)cc(S(=O)(=O)N2CCCC3(CCNC3=O)C2)c1 (stereo not drawn) [Compound 25, 7-{[3-Methyl-5-(trifluoromethyl)phenyl]sulfonyl}-2,7-diazaspiro[4.5]decan-1-one]
O=C1NCCC12CCCN(S(=O)(=O)c1cccc(C(F)(F)F)c1)C2 (stereo not drawn) [Compound 9, 7-{[3-(Trifluoromethyl)phenyl]sulfonyl}-2,7-diazaspiro[4.5]decan-1-one]
Cc1ccc(C(F)(F)F)cc1S(=O)(=O)N1CCCC2(CCNC2=O)C1 (stereo not drawn) [Compound 26, 7-{[2-Methyl-5-(trifluoromethyl)phenyl]sulfonyl}-2,7-diazaspiro[4.5]decan-1-one]
O=C1NCCC12CCCN(S(=O)(=O)c1ccc(OC(F)(F)F)cc1)C2 (stereo not drawn) [Compound 6, 7-({4-[(Trifluoromethyl)oxy]phenyl}sulfonyl)-2,7-diazaspiro[4.5]decan-1-one]
COc1ccc(C(F)(F)F)cc1S(=O)(=O)N1CCCC2(CCNC2=O)C1 (stereo not drawn) [Compound 32, 7-{[2-(Methyloxy)-5-(trifluoromethyl)phenyl]sulfonyl}-2,7-diazaspiro[4.5]decan-1-one]
CN1CCC2(CCCN(S(=O)(=O)c3ccc(C(F)(F)F)cc3)C2)C1=O (stereo not drawn) [Compound 2, 2-Methyl-7-{[4-(trifluoromethyl)phenyl]sulfonyl}-2,7-diazaspiro[4.5]decan-1-one]
O=C1NCCC12CCCN(S(=O)(=O)c1cc(F)cc(C(F)(F)F)c1)C2 (stereo not drawn) [Compound 14, 7-{[3-Fluoro-5-(trifluoromethyl)phenyl]sulfonyl}-2,7-diazaspiro[4.5]decan-1-one]
Cc1ccc(S(=O)(=O)N2CCCC3(CCNC3=O)C2)c(OC(F)(F)F)c1 (stereo not drawn) [Compound 24, 7-({4-Methyl-2-[(trifluoromethyl)oxy]phenyl}sulfonyl)-2,7-diazaspiro[4.5]decan-1-one]
O=C1NCCC12CCCN(S(=O)(=O)c1cc(C(F)(F)F)ccc1C(F)(F)F)C2 (stereo not drawn) [Compound 16, 7-{[2,5-Bis(trifluoromethyl)phenyl]sulfonyl}-2,7-diazaspiro[4.5]decan-1-one]
